Results as given in paper PMC4055232 (Malaria Journal, 2014).
Read-outs that look alike come from different tables or passages of the source. Marks after values point to notes of the source that are not given here.

Experiments:
[1] = Pharmacokinetics of probe drug cocktail (bupropion, midazolam) and their metabolites before and after QHS-PQ; format: in vivo, human; settings: for Geometric mean ratio (90% CI) of AUC 0-t /dose / Geometric mean ratio (90% CI) of C max / Geometric mean ratio (90% CI) of CL/F / Geometric mean ratio (90% CI) of MRT: 2-day (after QHS-PQ) versus 1-day (day -14); for AUC 0-t /dose: mean ± sd; for T max / Tmax: value (range)
Experimental: The chromatography was performed at 22°C. The mobile phase consisted of B (acetonitrile) and A (0.1% formic acid in water), which increased linearly from 20% B to 90% B during 7 min before column re-equilibration at a flow rate of 0.3 mL/min.
Plasma samples were subjected to a protein precipitation extraction process. A 100 μL aliquot of human plasma was mixed with 25 μL of acetonitrile and 200 μL of IS (1 μM of alprazolam, prepared in acetonitrile). The mixture was mixed and centrifuged at 3,000 g for 10 min. Aliquots (20 μL) of the solution were injected onto LC-MS analysis. […] This mixture was treated as above. […] Plasma samples were diluted with blank plasma and reanalysed when the concentration of any analyte was higher than the upper limit of quantification.
Venous blood samples (2 mL) for analysis of probe drugs and their metabolites were taken from an indwelling intravenous catheter at 0, 0.25, 0.75, 1.5, 2.0, 3.0, 4.0, 5.0, 7.0, 11.0, 24.0, 36.0, and 48.0 hours.
(§1) The peak plasma concentration (Cmax) and time-to-peak concentration (Tmax) were obtained from experimental observations. The other pharmacokinetic parameters were analysed by non-compartmental model using the program TOPFIT (version 2.0; Thomae GmbH, Germany). The area under the plasma concentration-time curve (AUC o-t ) was calculated using the linear trapezoidal rule to approximately the last point. The mean residence time (MRT) was obtained by dividing the area under the first moment-time curve (AUMC 0-t ) by the area under the curve (AUC 0-t ). Total oral body clearance (CL/F) was calculated as dose/AUC 0-t .
(§2) Results were expressed as mean ± SD. The two-tailed t-test was used for paired comparison of the pharmacokinetic parameters between the single dose and multiple doses after logarithmic transformation. Geometric mean ratios with 90% confidence intervals (CIs) were calculated after log transformation of within-subject data. The comparison of Tmax for the different treatment groups was performed using the Wilcoxon signed-rank test. The acceptable level of significance was established at P < 0.05 or P < 0.01.

[2] = Bench-top stability of QC samples in human plasma on ice; format: in vitro ADME; settings: human plasma on ice for at least 2 hours; difference < 15%
[3] = cited from earlier work
[4] = Pharmacokinetics of QHS and its phase I/II metabolites in plasma after oral QHS-PQ (Artequick); settings: for CL/F / Cmax / MRT / AUC 0-t /dose: mean ± sd; for Cmax / MRT / Tmax: in vivo; for Cmax: C max; for Tmax: T max
Experimental: The chromatography was performed at 22°C. The mobile phase consisted of acetonitrile and 5 mM aqueous ammonium acetate containing 0.1% (v/v) formic acid, delivered at a flow rate of 0.35 mL/min. The gradient chromatographic conditions were shown in the previous report. The autosampler was set at 4°C.
Plasma samples were subjected to a protein precipitation extraction process, which was performed on ice. A 100 μL aliquot of human plasma was mixed with 25 μL of acetonitrile and 200 μL of IS (1 μM of ARM, prepared in acetonitrile). The mixture was mixed and centrifuged at 3,000 g for 10 min. Aliquots (20 μL) of the solution were injected onto LC-MS analysis. […] This mixture was treated as above.
Plasma was separated by centrifugation at 3,000 g for 10 min at 4°C. The plasma was stored at -80°C until analysis.
as §1, §2

CAR1/3 = settings: cited from earlier work
PXR = settings: cited from earlier work
[5] = listed as '1-day': oral probe cocktail (bupropion 75 mg, midazolam 15 mg) on day -14, before QHS-PQ
[6] = listed as '1-day': probe cocktail before QHS-PQ (day -14)
[7] = listed as '2-day': probe cocktail 1 hour after second oral dose of QHS-PQ (day 2)
[8] = listed as '2-day': probe cocktail after second dose of QHS-PQ
[9] = human, po, 2-day oral QHS-PQ, value (range)
[10] = human, plasma, oral, row '1-day': probe cocktail before QHS-PQ (day -14)
[11] = human, plasma, oral, row '1-day': probe cocktail before QHS-PQ (day -14), read-out: CL/F (converted)
[12] = human, plasma, oral, row '1-day': probe cocktail before QHS-PQ (day -14), read-out: MRT
[13] = human, plasma, oral, row '2-day': probe cocktail after second dose of QHS-PQ
[14] = human, plasma, oral, row '2-day': probe cocktail after second dose of QHS-PQ, read-out: CL/F (converted)
[15] = human, plasma, oral, row '2-day': probe cocktail after second dose of QHS-PQ, read-out: MRT

Row | Compound | Geometric mean ratio (90% CI) of AUC 0-t /dose [1] | Geometric mean ratio (90% CI) of C max [1] | Geometric mean ratio (90% CI) of CL/F [1] | Geometric mean ratio (90% CI) of MRT [1] | AUC 0-t /dose [1, 5] [kg·h/L] | CL/F [1, 6] [mL/min/kg] | Cmax [1, 6] [nM] | MRT [1, 6] [h] | T max [1, 6] | AUC 0-t /dose [1, 7] | CL/F [1, 8] [mL/min/kg] | Cmax [1, 8] [nM] | MRT [1, 8] [h] | T max [1, 8] | stability in plasma [2] | Cmax ([4]; human, po, 1-day oral QHS-PQ) [nM] | Cmax ([4]; human, po, 2-day oral QHS-PQ) [nM] | MRT ([4]; human, po, 1-day oral QHS-PQ) [h] | MRT ([4]; human, po, 2-day oral QHS-PQ) [h] | Tmax [4, 9] [h] | other results
1 | OCc1ncc2n1-c1ccc(Cl)cc1C(c1ccccc1F)=NC2 [OH-MDZ, α-hydroxymidazolam] | 4.99 (4.66, 5.33)** | 2.95 (2.44, 3.56)** | 0.19 (0.18, 0.21)** | 1.14 (1.01, 1.28) | 0.32 ± 0.09 | 55.2 ± 14 | 82.3 ± 50.3 | 3.7 ± 1.0 | 1.1 (0.3, 2.0) h | 1.60 ± 0.26** h·kg·L^-1 | 10.7 ± 1.83 | 243 ± 82 | 4.2 ± 0.5 | 1.5 (0.8, 3.0) h |  |  |  |  |  |  | 
2 | C[C@@H]1CC[C@H]2[C@@H](C)C(=O)O[C@@H]3O[C@@]4(C)CC[C@@H]1[C@]32OO4 [QHS, Artemisinin, reference compound] |  |  |  |  |  |  |  |  |  |  |  |  |  |  | stable | 304 ± 192 | 221 ± 118 | 3.2 ± 0.9 | 2.9 ± 0.9 | 1.4 | dose-normalized AUC, reported range ([3]; healthy subjects and patients who received 500 mg of QHS): 0.06 to 0.31 kg·h/L; dose-normalized AUC, reported range ([3]; infected children, dose […]): 0.33 to 0.49 kg·h/L; CL/F ([4]; 1-day oral QHS-PQ, dose/AUC0-t): 164 ± 138 mL/min/kg; change of Cmax, Tmax and MRT after repeated drug dosing ([4]; P > 0.05): did not change; inter-individual variability (%CV) for AUC 0-t ([4]; after the first dose, range 6.9-122.7%): 43.5%; CL/F ([4]; human, plasma, po, CL/F, 1-day oral QHS-PQ, dose/AUC0-t): 163 mL/min/kg; CL/F ([4]; human, plasma, po, CL/F, 2-day oral QHS-PQ): 277 mL/min/kg; decrease in AUC 0-t, second oral dose compared with the first dose ([4]; oral QHS-PQ, two consecutive days): 35.2%
3 | Cc1ncc2n1-c1ccc(Cl)cc1C(c1ccccc1F)=NC2 [MDZ, midazolam] |  |  |  |  |  |  |  |  |  |  |  |  |  |  |  |  |  |  |  |  | Cmax [1, 10]: 206 ± 115 nM; Tmax [1, 10]: 1.3 h; CL/F [1, 11]: 18.2 mL/min/kg; MRT [1, 12]: 4.1 ± 0.7 h; Cmax [1, 13]: 305 ± 115 nM; Tmax [1, 13]: 0.8 h; CL/F [1, 14]: 11.7 mL/min/kg; MRT [1, 15]: 4.2 ± 0.7 h
4 | CC(NC(C)(C)C)C(=O)c1cccc(Cl)c1 (centres unmarked) [BUP, Bupropion] |  |  |  |  |  |  |  |  |  |  |  |  |  |  |  |  |  |  |  |  | Cmax [1, 10]: 328 ± 181 nM; Tmax [1, 10]: 2.1 h; CL/F [1, 11]: 62.2 mL/min/kg; MRT [1, 12]: 6.8 ± 1.9 h; Cmax [1, 13]: 306 ± 147 nM; Tmax [1, 13]: 2.5 h; CL/F [1, 14]: 63 mL/min/kg; MRT [1, 15]: 6.1 ± 1.7 h
5 | (±)-hydroxybupropion [OH-BUP] | 2.05 (1.83, 2.30)** | 1.65 (1.51, 1.82)** | 0.49 (0.43, 0.55)** | 1.04 (1.00, 1.07) | 3.98 ± 1.45 | 4.83 ± 1.83 | 518 ± 162 | 19.4 ± 1.4 | 5.2 (3.0, 11.0) h | 8.22 ± 3.43** h·kg·L^-1 | 2.33 ± 0.83 | 857 ± 245 | 20.2 ± 1.5 | 7.6 (3.0, 24.0) h |  |  |  |  |  |  | 
6 | C[C@@H]1CC[C@H]2[C@@H](C)C(=O)O[C@@H]3O[C@@]4(C)CC[C@@H]1[C@]32O4 [DeoxyQHS, Deoxyartemisinin] |  |  |  |  |  |  |  |  |  |  |  |  |  |  | stable | 71 ± 46.1 | 55.6 ± 33.3 | 7.1 ± 0.6 | 6.2 ± 1.5 | 2.3 | activity at CAR1/3 (CAR1/3): agonist; AUC 0-t /dose ([4]; 1-day (first oral dose of QHS-PQ, 1.8 mg/kg QHS plus 10.6 mg/kg piperaquine), 14 healthy Chinese, plasma): 0.09 ± 0.05** h·kg·L^-1; T max ([4]; 1-day oral QHS-PQ, value (range)): 2.2 (1.25, 4.0) h; AUC 0-t /dose ([4]; 2-day (second daily oral dose of QHS-PQ)): 0.06 ± 0.04** h·kg·L^-1; Geometric mean ratio (90% CI) of AUC 0-t /dose ([4]; 2-day versus 1-day oral QHS-PQ): 0.68 (0.58, 0.79)**; Geometric mean ratio (90% CI) of AUC M /AUC QHS ([4]; 2-day versus 1-day oral QHS-PQ): 1.18 (0.97, 1.43); Geometric mean ratio (90% CI) of C max ([4]; 2-day versus 1-day oral QHS-PQ): 0.78 (0.69, 0.89)*; Geometric mean ratio (90% CI) of CL/F ([4]; 2-day versus 1-day oral QHS-PQ): 1.68 (1.45, 1.95)**; Geometric mean ratio (90% CI) of MRT ([4]; 2-day versus 1-day oral QHS-PQ): 0.89 (0.79, 0.99); change of Tmax and MRT after repeated drug dosing ([4]; P > 0.05): did not change; Tmax ([4]; human, po, 1-day oral QHS-PQ, value (range)): 1.3 to 4 h; decrease in AUC 0-t after multiple oral doses ([4]; in 13 out of 14 subjects, range 20.3-71.8%): 34.7%; decrease of metabolic capability AUCdeoxy-QHS/AUCQHS after the second dose ([4]; in four subjects): 41.6%; increase of metabolic capability AUCdeoxy-QHS/AUCQHS after the second dose ([4]; in six subjects): 1.6 fold; increase of CL/F after the second dose ([4]; second versus first oral dose of QHS-PQ): 1.7 fold; activity at PXR (PXR): agonist
